Assay results published in publication PMC10683482, “Offsetting Low-Affinity Carbohydrate Binding with Covalency to Engage Sugar-Specific Proteins for Tumor-Immune Proximity Induction” (ACS Central Science, 2023).
Where two headings read alike, the source gives them in different places.

Legend:
anti-23F antibody = test: Mass spectrometry study of anti-23F labelling; type: binding, human; details: 10 µM cARM, 2.7 µM anti-23F, 45 hours
Protocol: To further confirm selectivity, an MS study was conducted to determine the site of labeling (Figures S10 and S11). […] No other labeling site was detected on the light chain; however, the lability of the SO2F-serine/tyrosine linkage to MS sample preparation protocols likely limited complete labeling site coverage. […] Due to the low labeling efficiency of rhamnose-AI-cARM, no labeling site could be identified. […] Determining the selectivity for antirhamnose antibodies in the presence of off-target cell surface proteins will be the focus of future in vivo studies.
Mass Spectrometry Study – Anti-23F Labelling
Anti-23F (2.7 µM) was incubated with 10 µM of Biotin-AI-cAR M 4 or Biotin-SO2F-cAR M 12, or PBS (antibody only) for 45 hours before MS analysis. Analysis was completed by Bioinformatics Solutions
Inc. Briefly, for intact protein analysis each sample was treated with PNGase F to remove glycans followed by LC-MS analysis. To determine site of labelling, each sample was digested with tryspin, chymostrypsin, and pepsin then analyzed by LC-MS/MS on a timsTOF Pro. Peptide spectra were mapped to a known antibody sequence (anti -23F antibody, Creative Biolabs - PABX-173). No labelling was identified with acyl imidazole containing cARM 4. […]
approxima tely 30% labelling post MS protocol (Figure S11)
Figure S10. Sample analysis of peptide mapping of anti-23F heavy chain. Modification with cARM 12 is […]
(1 picture or pasted object on this page, not shown here)

[1] = tested on: monoclonal anti-23F antibody; test: BLI affinity of rhamnose probes for monoclonal anti-23F; type: binding, human; details: for koff: dissociation in 100 mM L-rhamnose; for anti-23F recognition of glycoside variant: 125 nM anti-23F association
Description: Figure 1 Affinity determination of endogenous and monoclonal antibody sources for L-rhamnose glycoside variants. A. Chemical structures of rhamnose affinity probes. B/C. Approximation of antirhamnose antibody binding affinity for probes 1–3 using biolayer interferometry. B. Purified human serum IgG is used to estimate the affinity of endogenous polyclonal serum antirhamnose antibodies for each affinity probe 1–3. C. Monoclonal anti-23F antibody is used to estimate the potential affinity of vaccine-induced antirhamnose antibodies for each affinity probe 1–3. […] Association was monitored for 900 (B) or 600 (C) seconds. The loaded biosensor probe was then dipped into a dissociation solution of 100 mM L-rhamnose for 600 s. Association curves were fit to a two-phase association model in GraphPad Prism using Kfast to calculate kon. Dissociation curves were similarly fit to a two-phase decay using Kfast to calculate koff. TEXT PRINTED IN THE PICTURE: (B) no label printed: Polyclonal Human IgG: Kd ≈ 7 x10^-5 M | (C) no label printed: Monoclonal Anti-23F: Kd ≈ 6 x10^-6 M DOUBTS OF THE COPYIST ABOUT THIS PICTURE: Panel B, Kd ≈ 7 x10^-5 M: printed once in the plot with no link to a single curve, so it is unclear which of (1) α–O, (2) α–S and (3) β–S it applies to / Panel C, Kd ≈ 6 x10^-6 M: printed once in the plot with no link to a single curve, so it is unclear which of (1) α–O, (2) α–S and (3) β–S it applies to […]
The advancement of synthetic immunotherapeutic modalities targeting anti-rhamnose antibodies has been complicated by a lack of model monoclonal antibody to enable medicinal chemistry optimization. Previous studies relied on polyclonal antirhamnose sources (e.g., human/rabbit serum) for validation studies. We hypothesized that antibodies induced by vaccination against the 23F serotype of streptococcus pneumonia (which contains α-rhamnose) would serve as a source of novel monoclonal antibodies. FDA-approved vaccines (such as PPV23) can induce anti-23F antibodies, with patient-derived monoclonal anti-23F antibody sequences commercially available.[22]−[24] We proceeded to study anti-23F in BLI assays as done in Figure 1B (Figure 1C, association phase = 125 nM anti-23F). […] Furthermore, given the efficient recognition of α-rhamnose by both endogenous human polyclonal and monoclonal antirhamnose sources, it was selected as the ABD for subsequent cARM development.
General Notes and Materials […]
Biolayer Interferometry (BLI) General notes and Materials
IgG from human serum was purchased from Innovative Research (IHUI GGAP1000MG). Anti -23F antibody was purchased fr om Creative Biolabs (PABX -173). Biolayer Interferometry (BLI) was conducted using a ForteBio Octet Red96, and streptavidin biosensors (Sartorius - 18-5019) or ProG biosensors (Sartorius – 18-5082). For quench, a 5% skim milk (Nestle Carnation Instant Skim Milk) solution in 1X kinetics buffer was used. The instrument was set at 25 °C, with 1000 RPM, and acquisition rate of 5 Hz.
Each well of a black well plate (Greiner Bio -One - 655086) was filled with 200 µL of appropriate solution.
Dissociation buffer was comprised of L-rhamnose (100 mM, Sigma Aldrich – R3875-10G) in 1X kinetics buffer to reduce avidity contribution to dissociation rate (koff).
SDS-PAGE General notes and Materials […]
Carboxyfluorescein was purchased from Sigma Aldrich (21877 -5G-F). IgG from human serum was purchased from Innovative Research (IHUIGGAP1000MG). Anti -23F antibody was purchased from Creative Biolabs (PABX -173). Laemellie Buffer (2x) was purchased from Sigma Aldrich (S3401 -10VL).
Pre-cast Tris-Glycine Gels (4-20%) were purchased from Fisher Scientific (XP04202BOX). […]
A647-alkyne was purchased from Broadpharm (BP-28217). Gels were stained using Coomassie Stain from Bio Rad (1610786), and subsequently imaged using an Odyssey CLX imager. Gels were run at 90V for 15 minutes, followed by […]
ADCC Reporter Assay General notes and Materials […]

[2] = average of three anti-23F concentrations, read-out: Avg Kd

Compound | site of labelling (LC-MS/MS peptide mapping) (anti-23F antibody) | kon ([1]; 125 nM Anti-23F) [M⁻¹ s⁻¹] | koff ([1]; 125 nM Anti-23F) [s⁻¹] | Kd ([1]; 125 nM Anti-23F, read-out: Kd) [µM] | anti-23F recognition of glycoside variant [1] | kon ([1]; 250 nM Anti-23F) [M⁻¹ s⁻¹] | koff ([1]; 250 nM Anti-23F) [s⁻¹] | Kd ([1]; 250 nM Anti-23F, read-out: Kd) [µM] | kon ([1]; 500 nM Anti-23F) [M⁻¹ s⁻¹] | koff ([1]; 500 nM Anti-23F) [s⁻¹] | Kd ([1]; 500 nM Anti-23F, read-out: Kd) [µM] | Kd [1, 2] [µM]
C[C@@H]1O[C@@H](OCc2cn(CCc3cn(C(=O)OCCOCCOCCOCCOCCOCCOCCOCCNC(=O)CCCC[C@@H]4SC[C@@H]5NC(=O)N[C@@H]54)cn3)nn2)[C@H](O)[C@H](O)[C@H]1O [compound 4] | No labelling |  |  |  |  |  |  |  |  |  |  | 
C[C@@H]1O[C@@H](OCc2cn(CCOCCNC(=O)OCCOCCOCCOCCOCCOCCOCCOCCNC(=O)CCCC[C@@H]3SC[C@@H]4NC(=O)N[C@@H]43)nn2)[C@H](O)[C@H](O)[C@H]1O [compound 1] |  | 1.1e+06 | 5.591 | 5.2 | uniquely specific for α-glycoside variants | 920000 | 5.773 | 6.2 | 630000 | 4.673 | 7.4 | 6.3 ± 1.1
C[C@@H]1O[C@@H](SCc2cn(CCOCCNC(=O)OCCOCCOCCOCCOCCOCCOCCOCCNC(=O)CCCC[C@@H]3SC[C@@H]4NC(=O)N[C@@H]43)nn2)[C@H](O)[C@H](O)[C@H]1O [compound 2] |  | 770000 | 4.018 | 5.2 | uniquely specific for α-glycoside variants | 730000 | 4.378 | 6 | 560000 | 3.509 | 6.2 | 5.8 ± 0.5
